Measurements published in US6635234B1, “Preparation and use of radium-223 to target calcified tissues for pain palliation, bone cancer therapy, and bone surface conditioning” (Anticancer Therapeutic Inventions AS, priority 1999, dated 2003).
“And” between values parts separate entries of the source, which are not always exact repeats. Equal entries are not always repeated.

Legend:
[1] = system: MT-1 human breast cancer cells; settings: treatment seven days after tumour cell inoculation; cited from earlier work
[2] = Biodistribution of radium-223 in Balb/C mice; type: in vivo; settings: for % of injected dose per gram, femur: 9 kBq in isotonic saline
Description: (§1) Methods: Young male Balb/C mice with a body weight of 19-21 g were injected with 9 kBq of ^223Ra in 150 μl of isotonic saline. Groups of five animals were sacrificed and dissected at 6 h and 3 days after injection. Sample weight was measured and samples were counted using (A) a “well type” NaI scintillation crystal (Harshaw Chemie BV, De Meern, Holland) combined with a Scaler Timer ST7 (NE Technology Ltd, Reading, UK) digital unit, (B) a Beckman LS 6500 (Beckman Instruments Inc. Fullerton, Calif., USA). Relative abundances of radionuclides were studied in blood, liver, kidney, and in standard samples with mother/daughter in equilibrium, using a Ge-detector (Canberra, Meriden, Conn., USA) combined with an amplifier and bias supply from EG&G Ortec (Oak Ridge, Tenn., USA).

[3] = Gamma spectroscopy of the 211Bi:223Ra ratio in tissues versus a standard solution; type: in vivo, Balb/C mice
Description: as §1
The ratio of ^211Bi: ^223Ra was in the spleen at the 6 hour point on average 54% compared to a standard solution. In liver and kidneys on the other hand, the ^211Bi: ^223Ra ratios in the samples were on the average 256 and 207% of the standards respectively. […] Also the ^211Bi activity in soft tissues was in general very low compared to bone activity of this nuclide. The ^211Bi in the soft tissues may have been generated from ^223Ra present in soft tissues.

[4] = Localization Index (211Bi vs 223Ra retention) in femur by gamma spectroscopy; type: in vivo, mice; settings: average
Description: To examine if there was a difference in radioisotope retention between radium-223 and bismuth-211 in bone samples, gamma spectroscopic data for bone versus a standard solution with ^223Ra and daughter radionuclides in equilibrium was studied.
Methods: Gamma spectroscopy with a germanium detector (Canberra, Meriden, Conn., USA) was performed on samples of femur from mice immediately after sacrificing and dissecting the animals. Samples of a standard solution of ^223Ra and daughter radionuclides in equilibrium were studied. The distinct gamma peaks at 351.0 keV (^211Bi) and 154.2 keV (^223Ra) were used. A Localization Index (LI) was determined as follows:
E.g., BBi−^211Bi count rate in bone; SRa−^223Ra count rate in standard
Gamma spectra from five samples from the 6 h group and the 3 days group respectively were compared, to five and three samples from the standard solution respectively, using Student t-test for data columns.

[5] = Release of daughter isotopes from fragmented femur washed with PBS; type: in vivo, mice
Description: To study potential release of daughter isotopes after ^223Ra was incorporated in bone, due to either nuclear recoil or diffusion processes, femurs from five animals killed 6 h, and 5 animals killed 3 days after injection were examined.
Methods: The bones were cleaved longitudinally, to expose the red marrow (spongious) areas, and thereafter cut into small fragments of less than 3 mg. Thereafter the samples were washed with Dulbeccos PBS (Sigma-Aldrich CO. LTD., Irvine, UK) using centrifugation. The supernatant was removed, mixed with scintillation liquid (Insta-Gel 11 plus, Packard BioScience BV, Groningen, The Netherlands) and counted on a scintillation counter (Beckman Instruments Inc. Fullerton, Calif., USA). After one day sample counting was repeated. A difference in counts after correcting for ^223Ra decay between the two measurements was used as indication of release of daughter nuclide(s) from bone matrix.

[6] = system: MT-1 human breast cancer cells; experiment: MT-1/nude rat model of skeletal metastases; type: in vivo, nude rats
Source text: It has been developed animal models with experimental metastasis pattern resembling those frequently observed in human patients (Engebraaten and Fodstad, 1999). One of these models consists of MT-1 cells injected intracardially into nude rats and is characterized by the consistent development of hind leg paralysis in the animals.
Method: The therapeutic potential of radium-223 was studied in the MT-1/nude rat model where animals were inoculated with 1×10^6 MT-1 human breast cancer cells by injection into the left ventricle of the heart as described (Engebraaten and Fodstad,. 1999). These animals usually develop paralysis caused by growth of tumours in the spine. Groups of 4 and 5 animals each were then treated seven days later by receiving an intravenous injection of 200 μl of a vehicle solution without or with 10 kBq of radium-223 according to the invention.

[7] = bone samples; after radium-226 had been administered to dogs; cited from earlier work

In the case of `N.N.[Cl][Pt][Cl]` [cisplatin], the Effect on survival [1] is listed as “did not improve survival”.
In the case of `COc1cccc2c1C(=O)c1c(O)c3c(c(O)c1C2=O)C[C@@](O)(C(=O)CO)C[C@@H]3O[C@H]1C[C@H](N)[C@H](O)[C@H](C)O1` [doxorubicin], the Effect on survival [1] is given as “did not improve survival”.
With `[223Ra]` [radium-223] the “Femur to blood ratio” value ([2]; 6 h after injection) was 129, the “Femur to spleen ratio” value ([2]; 6 h after injection) was 6.4 and the “Concentration in bone compared to soft tissues” value ([2]; 6 h and 3 days) was “selectively concentrated in bone”. For the same compound, the “Femur to blood ratio” value ([2]; 3 days after injection) was 691, the “Femur to spleen ratio” value ([2]; 3 days after injection) was 23.7 and the “% of injected dose per gram, blood” value ([2]; 6 hours) was 0.20 ± 0.23 % of injected dose per gram. The “% of injected dose per gram, blood” value ([2]; 3 days) was 0.05 ± 0.10 % of injected dose per gram, the “% of injected dose per gram, brain” value ([2]; 6 hours) was 0.04 ± 0.01 % of injected dose per gram and the “% of injected dose per gram, brain” value ([2]; 3 days) was 0.12 ± 0.12 % of injected dose per gram. The “% of injected dose per gram, femur” value ([2]; 6 hours after injection) was 25.86 ± 1.99 % of injected dose per gram, the “% of injected dose per gram, femur” value ([2]; 3 days after injection) was 34.55 ± 7.87 % of injected dose per gram and the “% of injected dose per gram, heart” value ([2]; 6 hours) was 0.10 ± 0.10 % of injected dose per gram. The “% of injected dose per gram, heart” value ([2]; 3 days) was 0.06 ± 0.07 % of injected dose per gram, the “% of injected dose per gram, kidney” value ([2]; 6 hours) was 4.04 ± 0.33 % of injected dose per gram and the “% of injected dose per gram, kidney” value ([2]; 3 days) was 0.38 ± 0.08 % of injected dose per gram. The “% of injected dose per gram, large intestine” value ([2]; 6 hours) was 2.30 ± 0.60 % of injected dose per gram, the “% of injected dose per gram, large intestine” value ([2]; 3 days) was 0.13 ± 0.02 % of injected dose per gram and the “% of injected dose per gram, liver” value ([2]; 6 hours) was 0.89 ± 0.18 % of injected dose per gram. The “% of injected dose per gram, liver” value ([2]; 3 days) was 0.22 ± 0.32 % of injected dose per gram, the “% of injected dose per gram, lung” value ([2]; 6 hours) was 0.59 ± 0.56 % of injected dose per gram and the “% of injected dose per gram, lung” value ([2]; 3 days) was 0.06 ± 0.07 % of injected dose per gram. For the same compound, the “% of injected dose per gram, muscle” value ([2]; 6 hours) was 0.72 ± 0.39 % of injected dose per gram, the “% of injected dose per gram, muscle” value ([2]; 3 days) was 0.30 ± 0.16 % of injected dose per gram and the “% of injected dose per gram, small intestine” value ([2]; 6 hours) was 0.79 ± 0.26 % of injected dose per gram. The “% of injected dose per gram, small intestine” value ([2]; 3 days) was 0.04 ± 0.03 % of injected dose per gram, the “% of injected dose per gram, spleen” value ([2]; 6 hours) was 4.06 ± 1.4 % of injected dose per gram and the “% of injected dose per gram, spleen” value ([2]; 3 days) was 1.46 ± 0.54 % of injected dose per gram. The “Difference in relative distribution of radium-223 and its daughters (abundance of 211Bi)” value ([3]; bone and most soft tissues, gamma spectroscopy) was “no significant difference”, the “Ratio of 211Bi:223Ra, % of the standards” value ([3]; kidneys, average) was 207% and the “Ratio of 211Bi:223Ra, % of the standards” value ([3]; liver, average) was 256%. The “Ratio of 211Bi:223Ra compared to a standard solution” value ([3]; spleen, 6 hour point, average) was 54%, the “Localization Index LI=(BBi/SBi)/(BRa/SRa)” value ([4]; 6 h point, P=0.059) was 0.85 and the “Localization Index LI=(BBi/SBi)/(BRa/SRa)” value ([4]; 3 day point, P=0.749) was 0.97. The “Activity dissolved in PBS during washing, compared to the total activity in bone” value ([5]; animals killed after 6 hours, average) was 1.8%, the “Translocation of daughter isotopes from bone” value ([5]; animals killed after 6 hours, probably) was “less than 2%” and the “Activity of washing solutions counted again, of the bone sample” value ([5]; animals killed after 6 hours, recounted after 12 h, average) was 0.2%. The “Counts in the washing solution compared to the background” value ([5]; animals killed after 3 days) was “no significant counts”, the “Translocation, below detection limit, of the total bone radioactivity” value ([5]; animals killed after 3 days, estimated detection limit) was “less than 1%” and the “Anti-tumour effect in animals with skeletal metastases” value ([6]; 10 kBq i.v.) was “significant anti-tumour effect”. The “Time to paralysis after tumour cell inoculation (individual animals)” value ([6]; 10 kBq i.v. seven days after inoculation, group of five animals, listed as 223Ra) was 26 days and 40 days and 64 days and the “Survival without signs of paralysis, two remaining animals (follow-up period)” value ([6]; 10 kBq i.v. seven days after inoculation, two of five animals) was ≥ 90 days.
In the case of `[226Ra]` [radium-226], the “Radon-222 escaped from the bone” value [7] is given as 89.5-94.25%.
